These results are taken from ChEMBL document CHEMBL1151363, “Chemical composition and biological activity of the Tanzanian plant Ocimum suave” (1981).

Type in all cases: functional
For one assay, the system named is Staphylococcus aureus. The experiment in a line: Antimicrobial activity against Staphylococcus aureus ATCC 6538 after 48 hrs. The settings on record: ATCC 6538, 48 h.
For another assay, the system named is Saccharomyces cerevisiae. The experiment in a line: Antimicrobial activity against Saccharomyces cerevisiae UNSA Y-40 after 48 hrs.
In the next assay the test system is Escherichia coli. The experiment in a line: Antimicrobial activity against Escherichia coli UNSWO24101 after 48 hrs.
The next assay has as its system Micrococcus luteus. The experiment in a line: Antimicrobial activity against Micrococcus luteus ATCC 9341 after 48 hrs. The settings on record: ATCC 9341, 48 h.

Structures are written as SMILES. ≈ marks a conversion by molar mass, not a printed value.

The MIC is the lowest concentration that inhibits growth of the organism. The low end stands for greater potency, the high end for weaker potency. For the molecule `C=CCc1ccc(O)c(OC)c1` [EUGENOL], the MIC came out at 700 µg/mL (≈ 4.26 mM) in the assay with Staphylococcus aureus, 400 µg/mL (≈ 2.44 mM) against Saccharomyces cerevisiae, 600 µg/mL (≈ 3.65 mM) against Escherichia coli and 600 µg/mL (≈ 3.65 mM) in the assay with Micrococcus luteus.
